Measured values taken from article PMC10970734, “Identification of an Intravenous Injectable NK1 Receptor Antagonist for Use in Traumatic Brain Injury” (International Journal of Molecular Sciences, 2024).

Columns and labels:
[1] = parameters: method as in PMID 20795794, PMID 18042005; settings: slow infusion 20-30 min; cited from earlier work
rodent model of TBI [2] = experiment: Mortality after severe impact-acceleration TBI; type: in vivo, Sprague Dawley rats; settings: rat severe TBI, 10 mg/kg 30 min after injury
Description: Injury was induced using an impact-acceleration model of TBI which generates a rodent form of diffuse axonal injury, a major feature of clinical head injury. The level of injury induced in these studies was classified as “severe” [60]. In terms of assessing treatment effects, the study was performed in a blinded manner. […] In line with the “severe” nature of the injury, significant mortality rates were observed within the cohort of injured animals. However, the mortality rates varied between the treatment groups. In the “drug vehicle” group, a mortality rate of 30% was observed, which is in line with the nature of the injury.
Injury was induced in halothane-anesthetized (ProVet) male Sprague Dawley rats (400 ± 20 g) using acceleration-induced impact TBI [29, 93]. This model involves impacting a 10 mm diameter, 3 mm thick stainless steel disc fixed centrally to the exposed skull between the lambda and bregma with an accelerating impactor. The impactor was a 450 g brass weight dropped from a height of 2 m. Earlier studies have shown that the impact acceleration injury produces diffuse axonal injury, oedema, BBB opening, Mg^2+ decline, and moderate-to-severe neurologic deficits. All animals were fed and watered ad libitum before the induction of injury. […] Blood pressure was monitored, both before and after injury, using a femoral arterial line. […]

rodent model of TBI [3] = experiment: Motor function after TBI, rotarod test; type: in vivo, Sprague Dawley rats; settings: rat TBI, 10 mg/kg 30 min post-injury
Description: The maximum duration of the task was 120 s.
Injury was induced in halothane-anesthetized (ProVet) male Sprague Dawley rats (400 ± 20 g) using acceleration-induced impact TBI [29, 93]. This model involves impacting a 10 mm diameter, 3 mm thick stainless steel disc fixed centrally to the exposed skull between the lambda and bregma with an accelerating impactor. The impactor was a 450 g brass weight dropped from a height of 2 m. […] All animals were fed and watered ad libitum before the induction of injury. During both surgery and the immediate recovery phase, rat rectal temperature was maintained using a thermostatically controlled heating pad. Immediately after injury, animals were manually ventilated until stable respiration was restored, usually in <5 min. After injury, all wounds were sutured. Blood pressure was monitored, both before and after injury, using a femoral arterial line.
Motor and cognitive outcomes in animals (n = 6 per group) were assessed using the rotarod and Barnes maze, respectively, as described in detail elsewhere [64]. The rotarod consists of a motorized rotating assembly of 18 rods (1 mm in diameter) upon which the animals were placed. The rotational speed of the device was increased from 0 to 30 r.p.m. and the duration (in seconds) when the animals either completed the task, fell from the rods, or gripped the rods and spun for two consecutive revolutions rather than walking actively was recorded as the rotarod score. […] After activating the bright lights and aversive auditory stimulus, the latency (in seconds) for the animal to locate and enter the escape tunnel was recorded. All animals were pretrained on both functional outcome tests twice per day over 5 days before injury to establish a normal, uninjured baseline.

rodent model of TBI [4] = experiment: Cognitive function after TBI, Barnes maze; type: in vivo, Sprague Dawley rats; settings: rat TBI, 10 mg/kg 30 min post-injury, 10 days
Description: Cognitive outcome was assessed using the Barnes maze in order to reduce the potential confounding effects that may be associated with tests such as the Morris water maze. In the Barnes maze, animals were placed under a cover in the centre of an elevated 1.2 m diameter board containing 19 holes around the periphery. One hole contained the entrance to a darkened escape tunnel that was not visible from the surface, relying on the animal to use surrounding visual cues to locate the tunnel. The time, in seconds, for the animal to locate and enter the escape tunnel was recorded. Following pre-training, the effect of injury, and post-injury treatment, on the time taken for the animal to locate the tunnel was measured (Figure 7). […]
Injury was induced in halothane-anesthetized (ProVet) male Sprague Dawley rats (400 ± 20 g) using acceleration-induced impact TBI [29, 93]. […] Blood pressure was monitored, both before and after injury, using a femoral arterial line. […]
Motor and cognitive outcomes in animals (n = 6 per group) were assessed using the rotarod and Barnes maze, respectively, as described in detail elsewhere. […] The rotational speed of the device was increased from 0 to 30 r.p.m. and the duration (in seconds) when the animals either completed the task, fell from the rods, or gripped the rods and spun for two consecutive revolutions rather than walking actively was recorded as the rotarod score. […]

NK1R = settings: cited from earlier work
[5] = parameters: method as in PMID 20795794; settings: parent drug; cited from earlier work

## C[C@@H](O[C@H]1OCCN(Cc2nc(O)n(P(=O)(O)O)n2)[C@H]1c1ccc(F)cc1)c1cc(C(F)(F)F)cc(C(F)(F)F)c1 [Fosaprepitant, fosaprepitant]
[1]
  Time to conversion to aprepitant after end of infusion: ≤ 30 min

## C[C@]12N[C@H](Cc3ccccc31)c1ccccc12 [MK801]
Rodent model of TBI [2]
  Mortality rate: 48%
Rodent model of TBI [3]; 10 days
  Motor function, rotarod score: did not provide any beneficial outcome relative to the drug vehicle
Rodent model of TBI [3]; rotarod
  Recovery of motor function over the 10-day test period: approximately 50%
Rodent model of TBI [4]
  Cognitive function, Barnes maze time to locate escape tunnel: performance returning close to pre-injury by the end of the study period

## CC(=O)N[C@@H](Cc1c[nH]c2ccccc12)C(=O)O [NAT, N-acetyl-L-tryptophan]
NK1R
  NK1R binding: lack of NK1R binding

## C[C@@H](O[C@H]1OCCN(Cc2n[nH]c(=O)[nH]2)[C@H]1c1ccc(F)cc1)c1cc(C(F)(F)F)cc(C(F)(F)F)c1 [aprepitant]
[5]
  Aqueous solubility: 0.2 µg/mL
